Experimental findings from patent US20060089375A1, “Pyrazolo[3,4-b] pyridine compounds, and their use as phosphodiesterase inhibitors” (priority 2002, published 2006) are described below.

The test system of series [1] is LPS-induced pulmonary neutrophilia in rats. As to the kind of experiment: In Vivo Assay 1: LPS-induced pulmonary neutrophilia in rats, orally administered PDE4 inhibitors. The following applies: Rattus norvegicus, po, aerosolized LPS 30 min after dosing, BAL 4 hours post LPS, read-out: neutrophilia-inhibition ED50. The text has this: The purpose of this neutrophilia model is to study the potentially anti-inflammatory effects in vivo of orally administered PDE4 inhibitors on neutrophilia induced by inhalation of aerosolized lipopolysaccharide (LPS), modelling the neutrophil inflammatory component(s) of COPD. See the literature section below for scientific background.
Male Lewis rats (Charles River, Raleigh, N.C., USA) weighing approximately 300-400 grams are pretreated with either (a) test compound suspended in 0.5% methylcellulose (obtainable from Sigma-Aldrich, St Louis, Mo., USA) in water or (b) vehicle only, delivered orally in a dose volume of 10 ml/kg. Generally, dose response curves are generated using the following doses of PDE4 inhibitors: 10.0, 2.0, 0.4, 0.08 and 0.016 mg/kg. Thirty minutes following pretreatment, the rats are exposed to aerosolized LPS (Serotype E. Coli 026:B6 prepared by trichloroacetic acid extraction, obtainable from Sigma-Aldrich, St Louis, Mo., USA), generated from a nebulizer containing a 100 μg/ml LPS solution. Rats are exposed to the LPS aerosol at a rate of 4 L/min for 20 minutes. LPS exposure is carried out in a closed chamber with internal dimensions of 45 cm length×24 cm width×20 cm height. The nebulizer and exposure chamber are contained in a certified fume hood. At 4 hours-post LPS exposure the rats are euthanized by overdose with pentobarbital at 90 mg/kg, administered intraperitoneally. Bronchoalveolar lavage (BAL) is preformed through a 14 gauge blunt needle into the exposed trachea. Five, 5 ml washes are performed to collect a total of 25 ml of BAL fluid. […] Percent neutrophil inhibition at each dose (cf. vehicle) is calculated and a variable slope, sigmoidal dose-response curve is generated, usually using Prism Graph-Pad. […]
Alternative method and results: In an alternative embodiment of the procedure, single oral doses of 10 mg/kg or 1.0 mg/kg of the PDE4 inhibitor (or vehicle) is administered to the rats, and percent neutrophil inhibition is calculated and reported for that specific dose.

In a further series the test system is pica feeding response. As to the kind of experiment: In Vivo Assay 2: Rat Pica Model of Emesis. Conditions: oral, rats, dosed orally, upper end given as greater than or equal to about 40 mg/kg. The text has this:
However, a side effect of some PDE4 inhibitors in many species is emesis. Because many rat models of inflammation are well characterized, they have been used in procedures (see e.g. In Vivo Assay 1 above) to show beneficial anti-inflammatory effects of PDE 4 inhibitors. However rats have no emetic response (they have no vomit reflex), so that the relationship between beneficial anti-inflammatory effects of PDE 4 inhibitors and emesis is difficult to study directly in rats.
Pica feeding is a behavioural response to illness in rats wherein rats eat non-nutritive substances such as earth or in particular clay (e.g. kaolin) which may help to absorb toxins. Pica feeding can be induced by motion and chemicals (especially chemicals which are emetic in humans), and can be inhibited pharmacologically with drugs that inhibit emesis in humans. The Rat Pica Model, In Vivo Assay 2, can determine the level of pica response of rats to PDE 4 inhibition at pharmacologically relevant doses in parallel to in vivo anti-inflammatory Assays in (a separate set of) rats (e.g. In Vivo Assay 1 above). […] The Rat TI can for example be calculated as the ratio of a) the potentially-emetic Pica Response ED50 dose from Assay 2 to b) the rat anti-inflammatory ED50 dose (e.g. measured by rat neutrophilia-inhibition in eg In Vivo Assay 1), with larger TI ratios possibly indicating lower emesis at many anti-inflammatory doses. […]
At the end of 72 hours the rats are placed in clean cages and the food cups weighed. […] The food and clay cups and cage debris are weighed the following day and the total clay and food consumed that night by each individual animal is calculated.
A dose response is calculated by first converting the data into quantal response, where animals are either positive or negative for the pica response. A rat is “pica positive” if it consumes greater than or equal to 0.3 grams of clay […] using logistic regression performed by the Statistica software statistical package. A Pica Response ED50 value in mg per kg of body weight can then be calculated.

On to `CCn1ncc2c(NC3CCOCC3)c(C(=O)Nc3ccc(F)cc3)cnc21` [Example 22, 1-Ethyl-N-(4-fluorophenyl)-4-(tetrahydro-2H-pyran-4-ylamino)-1H-pryazolo[3,4-b]pyridine-5-carboxamide], for which the ED50 in series [1] fell in the range of 0.5 to 2 mg/kg; in the series on pica feeding response it was 4.8 to 40 mg/kg.

Turning to `CCNC(=O)c1cnc2c(cnn2CC)c1NC1CCOCC1` [Example 83, 1-Ethyl-N-ethyl-4-(tetrahydro-2H-pyran-4-ylamino)-1H-pyrazolo[3,4-b]pyridine-5-carboxamide], the figures for the ED50 (in series [1]; in the series with pica feeding response) were 0.5 to 2 mg/kg and 4.8 to 40 mg/kg, respectively.

In the case of `CCn1ncc2c(NC3CCOCC3)c(C(=O)NCc3ccc(C(F)(F)F)cc3)cnc21` [Example 155, 1-Ethyl-4-(tetrahydro-2H-pyran-4-ylamino)-N-[4-(trifluoromethyl)benzyl]-1H-pyrazolo[3,4-b]pyridine-5-carboxamide], the ED50 lay within 0.5 to 2 mg/kg in series [1] and 4.8 to 40 mg/kg with pica feeding response.
